Literature values, collected in patent US5585490A, “Certain cycloalkyl and azacycloalkyl pyrrolopyrimidines; a new class of GABA brain receptor ligands” (priority 1993, dated 1996).

Test system: benzodiazepine binding site
Settings: Tallman et al., 1978, Nature, 274: 383-85

## CN1CCc2cc3c(cc2C1C1OC(=O)c2c1ccc1c2OCO1)OCO3 (single isomer, unassigned; (+)) [(+) bicuculline]
  Enhancement of benzodiazepine binding by GABA agonists is blocked: blocked

## CN1CCc2cc3c(cc2C1C1OC(=O)c2c1ccc1c2OCO1)OCO3 (single isomer, unassigned; (-)) [(-) bicuculline]
  Enhancement of benzodiazepine binding by GABA agonists is blocked: much less active
